Experimental findings from US7297693B2, “Nitrogen-containing heterocyclic compounds and their use as Raf inhibitors” (SmithKline Beecham P.L.C., priority 2001, dated 2007) are described below.

The structures appear in SMILES notation.

One assay concerns the target B-Raf (Homo sapiens, UniProt P15056). Description: Fluorescence anisotropy kinase binding assay (Assay 1). The source says:
Fluorescence Anisotropy Kinase Binding Assay
The concentration of kinase enzyme should preferably be ≧1×Kf. The concentration of fluorescent ligand required will depend on the instrumentation used, and the fluorescent and physicochemical properties. The concentration used must be lower than the concentration of kinase enzyme, and preferably less than half the kinase enzyme concentration. A typical protocol is:
All compounds are serially diluted in DMSO, then by a one step dilution into buffer of comparison, 50 mM HEPES, […] pH7.5, 1 mM CHAPS, 10 mM MgCL2, for the assay.
B-Raf Enzyme concentration: 1 nM
Fluorescent ligand concentration: 0.5 nM
Test compound concentration: 0.5 nM-100 uM
Components incubated in 10 ul final volume in LJL HE 384 type B black microtitre plate until equilibrium reached (Over 3 h, up to 30 h)
Fluorescence anisotropy read in an LJL Acquest fluorescence reader.
• Ki=dissociation constant for inhibitor binding • Kf=dissociation constant for fluorescent ligand binding
The fluorescent ligand is the following compound:
which is derived from 5-[2-(4-aminomethylphenyl)-5-pyridin-4-yl-1H-imidazol-4-yl]-2-chlorophenol and rhodamine green.
Background: In fluorescence polarisation assays a small probe gives low polarisation when free and higher when bound to something large.

In assay [1] the test system is Normal human foreskin fibroblasts (HFF). The experiment in a line: Methylene blue growth inhibition assay (Assay 2), HFF. It is filed as cell-based. The settings on record: Fibroblast, 72 h, B-Raf wt, Ras wt, Assay 2, 3 days. The protocol:
(§1) Methylene Blue Growth Inhibition Assay (Assay 2)
(§2) Normal human foreskin fibroblasts (HFF), human melanoma (A375P, SKMEL2, SKMEL3) colon carcinoma (Colo 205) were cultured in the following growth media: A375P, Colo 205, Roswell Park Memorial Institute (RPMI) 1640 (Life Technologies 22400-089) containing 10% fetal bovine serum (FBS); HFF, Dulbecco's modified Eagle Medium (DMEM) (Life Technologies 12320-032) containing 10% FBS; SKMEL2 and SKMEL3, Minimum Essential Medium (MEM, Life Technologies 11095-080) containing 1× non-essential amino acids (Life Technologies 11140-050) and 10% FBS. Cells were harvested using 0.25% trypsin/1 mM, EDTA, counted using a haemocytometer, and plated in […] of the appropriate media, at the following densities, in a 96-well tissue culture plate (Falcon 3075): […] and A375P, 5,000 cells/well; all other cell lines, 10,000 cells/well. The next day, compounds were diluted in RPMI containing 100 micrograms/ml gentamicin, at twice the final required concentration, from 10 mM stock solutions in dimethyl sulphoxide (DMSO). One hundred microliters per well of these dilutions were added to the 100 microliters of media currently on the cell plates. RPMI containing 0.6% DMSO was added to control wells. […] Optical density at 620 nm was measured on a microplate reader. Percent inhibition of cell growth was calculated relative to vehicle treated control wells. […]

The test system of assay [2] is human colon carcinoma (Colo 201) cells. The experiment in a line: XTT 72 hr growth inhibition (Assay 3), Colo201. The settings on record: Colorectal cancer, B-Raf ND, Ras ND, Assay 3, 72 hr. Format: cell-based. On the procedure: XTT 72 hr Growth Inhibition Protocol for Mammalian Cultured Cells (Assay 3)
Human diploid foreskin fibroblasts (HFF) or human colon carcinoma (Colo 201) cells were grown in Dulbecco's modified Eagle's medium (DMEM) (Invitrogen/Life Technologies) containing 10% fetal bovine serum (FBS) and the antibiotics penicillin (100 Units/ml) and streotomycin (100 micrograms/ml) (Invitrogen/Life Technologies). Growth was at 37° C. in humidified 5% CO2 incubators in 75 cm^2 plastic flasks. Cells were harvested using 0.25% trypsin/1 mM ethylenediaminetetraacetic acid (EDTA), resuspended in growth medium, and counted using a hemocytometer. Flat-bottomed 96-well plates were seeded with 2×10^3 cells/well in a volume of 200 ul from trypsinized exponentially growing cultures. To “blank” wells, growth medium was added with no additions. Cells were incubated overnight to permit attachment.
Next day, medium from wells that contained cells was replaced with 180 microliters of fresh medium. Appropriate dilutions of test compounds were added to the wells from stock soloutions of compound dissolved in dimethyl sulfoxide (DMSO); final DMSO concentration in all wells was 0.2%. […] Absorbance at 450 nm was then determined using a 96-well UV plate reader (Molecular Devices). Under these conditions, absorbance of untreated control cells at 450 nm was at least 1.0 optical density unit/ml. […]
A general note: Formazan colour is commonly taken as a measure of viable cells.

The test system of assay [3] is colon carcinoma (Colo 205). Description: Methylene blue growth inhibition assay (Assay 2), Colo205. Format: cell-based. The settings on record: Homo sapiens, COLO 205, 72 h; Colorectal cancer; B-Raf V599E, Ras wt; Assay 2, 3 days. The protocol:
as §1, §2

The subject of the next assay is human melanoma A375P. The experiment in a line: Methylene blue growth inhibition assay (Assay 2), A375P. The settings on record: 72 h, B-Raf V599E, Ras wt, Assay 2, 3 days. Format: cell-based. The protocol: as §1, §2
The next assay relates to human melanoma SKMEL3. Description: Methylene blue growth inhibition assay (Assay 2), SKMEL3. It is filed as cell-based. The settings on record: SK-MEL3, 72 h, B-Raf V599E, Ras wt, Assay 2, 3 days. On the procedure:
as §1, §2

The next assay relates to human melanoma SKMEL2. The experiment in a line: Methylene blue growth inhibition assay (Assay 2), SKMEL2. It is filed as cell-based. The settings on record: SK-MEL-2, 72 h, B-Raf wt, [Q61R]N-Ras, Assay 2, 3 days. The protocol: as §1, §2

Sequence of B-Raf (P15056 whole entry): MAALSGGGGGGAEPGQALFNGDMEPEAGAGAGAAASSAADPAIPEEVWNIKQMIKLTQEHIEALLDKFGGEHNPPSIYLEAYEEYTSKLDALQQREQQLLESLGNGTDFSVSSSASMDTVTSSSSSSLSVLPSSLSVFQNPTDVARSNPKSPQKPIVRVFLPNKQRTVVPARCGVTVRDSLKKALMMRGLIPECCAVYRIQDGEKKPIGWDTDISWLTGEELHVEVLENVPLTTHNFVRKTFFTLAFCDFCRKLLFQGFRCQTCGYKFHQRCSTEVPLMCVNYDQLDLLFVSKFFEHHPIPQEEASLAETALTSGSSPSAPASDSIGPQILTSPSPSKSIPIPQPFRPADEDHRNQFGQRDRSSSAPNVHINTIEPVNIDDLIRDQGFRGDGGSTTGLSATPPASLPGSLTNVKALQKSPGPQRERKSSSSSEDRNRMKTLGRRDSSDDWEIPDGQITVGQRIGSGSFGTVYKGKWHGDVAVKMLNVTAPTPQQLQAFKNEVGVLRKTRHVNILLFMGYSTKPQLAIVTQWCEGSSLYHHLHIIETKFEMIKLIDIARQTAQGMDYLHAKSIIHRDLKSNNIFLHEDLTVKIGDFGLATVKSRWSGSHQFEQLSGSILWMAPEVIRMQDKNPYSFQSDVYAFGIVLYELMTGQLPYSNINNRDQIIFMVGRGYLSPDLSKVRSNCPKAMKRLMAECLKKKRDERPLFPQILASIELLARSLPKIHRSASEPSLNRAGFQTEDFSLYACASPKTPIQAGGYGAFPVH

For the compound `O=C(c1cc(-c2ccc3c(c2)CCC3=NO)c(-c2ccncc2)o1)N1CCC(N2CCCC2)CC1` [Example 20, 5-{2-Pyridin-4-yl-5-[1-(4-pyrrolidin-1-yl-piperidin-1-yl)-methanoyl}-furan-3-yl}-indan-1-one oxime], on B-Raf, the Kd – broadly, the concentration at which binding is half-saturated – is 0.4 nM. For the same compound, the IC50 (usually the concentration that gives 50% inhibition) in assay [1] is greater than 30000 nM; in assay [2] it was 800 nM; in assay [3] it was 320 nM; in the assay with human melanoma A375P, 310 nM; in the assay with human melanoma SKMEL3, 460 nM; in the assay on human melanoma SKMEL2, 1900 nM.
